Test results taken from publication PMC6269910 (Molecules, 2013).

Assays:
[1] = system: acetic acid-induced abdominal constriction; assay: Acetic acid-induced writhing (Koster) test; format: in vivo, mice; conditions: for Writhing test (% inh.) / Writhing test (Mean ± SEM): 100 mg/kg oral; for Writhing test (Mean ± SEM): writhings counted 10 min from 5 min after acetic acid
Protocol: Test samples, suspended in a mixture of distilled water and 0.5% sodium carboxymethyl cellulose (CMC), were given orally to the animals. The control group animals received the same experimental handling as those of the test groups, except that the drug treatment was replaced with appropriate volumes of the dosing vehicle. […] One hour after oral administration of test sample, each mouse was injected intraperitoneally with 3% (w/v) acetic acid solution (0.1 mL/10 g, bw). Starting 5 min after the acetic acid injection, the number of muscular contractions on mice were counted for a period of 10 min. A significant reduction in the number of writhings by any treatment as compared to the number of writhings in control animals was considered a positive analgesic response. The analgesic activity was expressed as a percentage change from writhing controls. ASA was used as a reference compound and administered at 200 mg/kg.

[2] = system: stomach; assay: Gastric-ulcerogenic effect (ulcer score); format: in vivo, mice; conditions: 200 mg/kg p.o.; animals with lesions/animals
[3] = system: lipid peroxidation in stomach; assay: Lipid peroxidation in stomach (TBARS); format: in vivo, mice; conditions: 100 mg/kg, 8 h after analgesic test
[4] = target: T1, HCV NS5B RNA dependent RNA polymerase (Hepatitis C virus genotype 1b, UniProt P26663); assay: NS5B inhibition assay (primer dependent elongation, poly rA-U12); format: biochemical; conditions: read-out: Anti-NS5B Activity (% Inh., 100 µM)
T1 construct: HCV NS5B RNA dependent RNA polymerase activity
Protocol: The compounds 1a–e and 2a–e were reconstituted in DMSO as 50 mM stocks, and serially diluted in DMSO to obtain working stocks. Wedelolactone, a known inhibitor of HCV NS5B activity, was employed as a reference compound. Preliminary screening was carried out at 100 μM to identify a wider range of compounds.
All synthesized compounds were evaluated for their effect on HCV NS5B RNA dependent RNA polymerase activity in primer dependent elongation assays as previously described. Activity of NS5B in the absence of the inhibitor but containing an equivalent amount of DMSO (control reaction) was set at 100% and that in the presence of the inhibitor was quantified relative to this control.

[5] = system: carrageenan-induced hind paw edema; assay: Carrageenan-induced hind paw edema model; format: in vivo, mice; conditions: for anti-inflammatory activity (in words): all doses, all measurement intervals
Protocol: Locally bred balb/c mice of both sexes (30-35 g) were purchased from the animal breeding laboratories of Inonu University ([…], Turkey). The animals were fed a standard pellet diet and water ad libitum in a temperature-controlled room. On the day before the treatments, food was withdrawn, but the animals were allowed free access of water. The allocation of animals to different groups was randomized, and the experiments were carried out under blind conditions. Mice used in the present study were cared for in accordance with the directory of the Inonu University Animal Care Unit, which applies the guidelines of the National Institutes of Health on laboratory animal welfare. Procedures involving animals and their care were conducted in conformity with international laws and policies and animal studies accepted by Inonu University Ethical Council (2011/A17). Test samples, suspended in a mixture of distilled water and 0.5% sodium carboxymethyl cellulose (CMC), were given orally to the animals. The control group animals received the same experimental handling as those of the test groups, except that the drug treatment was replaced with appropriate volumes of the dosing vehicle. […] For the preliminary activity screening, each test group was composed of four mice. […] Because of the daily changing circumstance, we used another control group for each experiment. For the determination of the effects on carrageenan-induced paw oedema, the modified method of Kasahara et al. was employed. One hour after the oral administration of either test sample or dosing vehicle, each mouse was injected with a freshly prepared (0.5 mg/25 μL) suspension of carrageenan (Sigma, St. Louis, MO, USA) in physiological saline (154 mM NaCl). The subplantar tissue of the right hind paw was the injection site for all mice. The contralateral paw (left hind paw) was injected with 25 μL saline solution as the internal control. […] The difference in footpad thickness between the right and left foot indicated the degree of inflammation for each mouse. The change in paw volume, either increase or decrease, was calculated and compared with the control group (dosing vehicle) and analyzed using statistical methods.

T1 sequence (P26663 2420-3010): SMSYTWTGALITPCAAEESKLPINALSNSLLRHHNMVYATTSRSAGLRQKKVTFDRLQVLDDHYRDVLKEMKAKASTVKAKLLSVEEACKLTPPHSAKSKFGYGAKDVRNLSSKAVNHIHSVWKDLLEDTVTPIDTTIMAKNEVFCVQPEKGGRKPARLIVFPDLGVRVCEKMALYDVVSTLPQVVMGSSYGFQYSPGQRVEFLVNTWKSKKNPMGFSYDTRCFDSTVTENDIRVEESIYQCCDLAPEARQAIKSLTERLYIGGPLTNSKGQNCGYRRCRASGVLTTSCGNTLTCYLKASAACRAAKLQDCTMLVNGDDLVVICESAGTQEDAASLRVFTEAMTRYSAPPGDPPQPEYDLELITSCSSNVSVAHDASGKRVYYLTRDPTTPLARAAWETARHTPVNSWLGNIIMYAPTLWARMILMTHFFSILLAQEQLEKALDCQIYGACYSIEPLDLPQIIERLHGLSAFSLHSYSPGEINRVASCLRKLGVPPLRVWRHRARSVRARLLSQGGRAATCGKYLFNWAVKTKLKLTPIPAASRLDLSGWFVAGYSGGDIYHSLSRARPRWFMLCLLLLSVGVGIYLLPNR

SMILES | melting point | Writhing test (% inh.) [1] | Writhing test (Mean ± SEM) [1] | Ulcer score [2] | Lipid peroxidation [3] | inhibition at 100 µM [4] | Swelling in thickness ± SEM ([5]; 50 mg/kg per os, 90 min) | percent inhibitory activity ([5]; 50 mg/kg per os, 90 min) | Swelling in thickness ± SEM ([5]; 50 mg/kg per os, 180 min) | percent inhibitory activity ([5]; 50 mg/kg per os, 180 min) | Swelling in thickness ± SEM ([5]; 50 mg/kg per os, 270 min) | percent inhibitory activity ([5]; 50 mg/kg per os, 270 min) | Swelling in thickness ± SEM ([5]; 50 mg/kg per os, 360 min) | percent inhibitory activity ([5]; 50 mg/kg per os, 360 min) | Swelling in thickness ± SEM ([5]; 100 mg/kg per os, 90 min) | Swelling in thickness ± SEM ([5]; 100 mg/kg per os, 180 min) | Swelling in thickness ± SEM ([5]; 100 mg/kg per os, 270 min) | percent inhibitory activity ([5]; 100 mg/kg per os, 270 min) | Swelling in thickness ± SEM ([5]; 100 mg/kg per os, 360 min) | percent inhibitory activity ([5]; 100 mg/kg per os, 360 min) | further results
Cc1ccc(-c2cc(C(F)(F)F)nn2-c2ccc(S(=O)(=O)/N=C3\SCC(=O)N3c3ccc([N+](=O)[O-])cc3)cc2)cc1 [Compound 2d, N-[3-(4-Nitrophenyl)-4-oxo-1,3-thiazolidin-2-yldene)-4-[5-(4-methylphenyl)-3-(trifluoromethyl)-1H-pyrazol-1-yl]benzenesulfonamide] | 270 to 272 °C | 31% | 12.0 ± 2.6 | 0/5 | 350.2 ± 9.9 nmol TBARS/g wet weight | 31.3% | 47.0 ± 3.3 × 10^−2 mm | 34.7% | 47.0 ± 3.7 × 10^−2 mm | 48.9% | 89.0 ± 6.5 × 10^−2 mm | 26.4% | 110.0 ± 6.7 × 10^−2 mm | 14.7% | 73.2 ± 11.1 × 10^−2 mm | 100.6 ± 5.8 × 10^−2 mm | 98.2 ± 16.7 × 10^−2 mm | 21.6% | 120.9 ± 9.3 × 10^−2 mm | 6.3% | analgesic activity (in words) ([1]; 100 mg/kg): not statistically significant; Swelling in thickness ± SEM ([5]; 200 mg/kg per os, 90 min): 80.6 ± 9.4 × 10^−2 mm; Swelling in thickness ± SEM ([5]; 200 mg/kg per os, 180 min): 86.0 ± 9.4 × 10^−2 mm; percent inhibitory activity ([5]; 200 mg/kg per os, 180 min): 6.5%; Swelling in thickness ± SEM ([5]; 200 mg/kg per os, 360 min): 108.6 ± 5.6 × 10^−2 mm; percent inhibitory activity ([5]; 200 mg/kg per os, 360 min): 15.8%; anti-inflammatory activity (in words) [5]: moderate-to-good
Cc1ccc(-c2cc(C(F)(F)F)nn2-c2ccc(S(=O)(=O)NC(=S)Nc3ccc(C(F)(F)F)cc3)cc2)cc1 [Compound 1e] | 228 to 231 °C | −37.9% | 24.0 ± 3.0 | 0/5 | 406.9 ± 27.0 nmol TBARS/g wet weight | 14.6% | 47.0 ± 3.3 × 10^−2 mm | 34.7% | 57.0 ± 6.2 × 10^−2 mm | 38.0% | 92.0 ± 1.2 × 10^−2 mm | 23.9% | 106.0 ± 6.7 × 10^−2 mm | 17.8% | 88.4 ± 2.6 × 10^−2 mm | 83.9 ± 3.4 × 10^−2 mm | 88.7 ± 11.4 × 10^−2 mm | 26.7% | 83.4 ± 9.6 × 10^−2 mm | 35.4% | percent inhibitory activity ([5]; 100 mg/kg per os, 180 min): 8.8%; Swelling in thickness ± SEM ([5]; 200 mg/kg per os, 90 min): 76.9 ± 5.7 × 10^−2 mm; Swelling in thickness ± SEM ([5]; 200 mg/kg per os, 180 min): 83.0 ± 6.8 × 10^−2 mm; Swelling in thickness ± SEM ([5]; 200 mg/kg per os, 270 min): 110.5 ± 7.5 × 10^−2 mm; Swelling in thickness ± SEM ([5]; 200 mg/kg per os, 360 min): 103.7 ± 5.2 × 10^−2 mm; percent inhibitory activity ([5]; 200 mg/kg per os, 360 min): 19.6%; anti-inflammatory activity (in words) [5]: moderate-to-good
